Results reported in patent US20230114728A1 (Venatorx Pharmaceuticals, Inc., priority 2019, published 2023).
Converted amounts (≈) assume the structure as drawn.

Experiments:
[1] = target: T1, E. coli K12 PBP3 (Escherichia coli, UniProt P0AD68); assay: biochemical; format: binding
T1 construct: made in house
Procedure, shortened: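 A. baumannii PBP2 (2.5 μM) and PBP3 (0.2 μM) were run in 25 mM Tris pH 8.0 buffer with Tween 20; E. coli PBP3 (1.5 μM) and N. gonorrhoeae PBP2 ([…]) in 50 mM Hepes pH 8.0 buffer.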

[2] = test system: N. gonorrhoeae ATCC 49226; assay: Liquid broth MIC in Fastidious broth; format: cell-based; conditions: Neisseria gonorrhoeae, ATCC49226; N. gonorrhoeae strain ATCC 49226; Fastidious broth; read-out: Minimum Inhibitory Concentration, N. gonorrhoeae ATCC 49226
Experimental: (§1) Example V: In Vitro Antibacterial Assays for N. gonorrhoeae Strains
(§2) Additional antibacterial testing of the series was performed in 8 reference strains of N. gonorrhoeae (ATCC 49226, FA1090, WHO G, WHO L, WHO K, H041, WHO Z, and WHO Q). ATCC 49226, FA1090, WHO G, and WHO L produce wild type or wild-type like PBP2. WHO K, H041, WHO Z, and WHO Q produce mosaic PBP2. Liquid broth-based assays were used for antibacterial testing of PBP inhibitors in Neisseria gonorrhoeae. Briefly, cryo-preserved bacterial cultures of clinical strains were streaked for isolation on Chocolate Agar (72 g/L (2×) GC Agar Base (BD #228950) and 2% (2×) Hemoglobin was autoclaved at 121° C. for 20 minutes to sterilize. Once cooled to ˜50° C. the 2× GC Agar Base and 2× Hemoglobin solutions are combined and 1% IsoVitaleX Enrichment (BD #211876) was added to the solution). Strains were incubated at 36° C. and 5% CO2 to allow growth of colonies, 24 hours before inoculum preparation. 2-fold serial dilutions of test compounds were conducted in a 96 well plate with a final volume of 75 μL per well at 2-fold the final desired concentration in Fastidious broth (Remel #R07664). For preparation of assay inoculum, a direct suspension was prepared by aseptically swabbing all colonies from agar plates into culture tubes containing 2 mL of fresh sterile saline. After the dilution plates were set up, direct suspensions were then diluted in a cuvette containing sterile saline and the optical density was measured at 600 nm. Inocula were diluted such that 75 μL of this culture in Fastidious broth results in a starting bacterial concentration of 5×10^5 CFU/mL when added to the dilution plates. The plates were incubated for ˜24 hours at 36° C. and 5% CO2. The MIC was read visually as the lowest concentration well with <10% bacterial growth compared to wells of full growth.

[3] = test system: N. gonorrhoeae WHO G; assay: Liquid broth MIC in Fastidious broth; format: cell-based; conditions: Neisseria gonorrhoeae; N. gonorrhoeae strain WHO G; Fastidious broth; read-out: Minimum Inhibitory Concentration, N. gonorrhoeae WHO G
Experimental: as §1, §2

[4] = test system: N. gonorrhoeae WHO K; assay: Liquid broth MIC in Fastidious broth; format: cell-based; conditions: Neisseria gonorrhoeae, read-out: Minimum Inhibitory Concentration, N. gonorrhoeae WHO K
Experimental: as §1, §2

[5] = test system: N. gonorrhoeae WHO L; assay: Liquid broth MIC in Fastidious broth; format: cell-based; conditions: Neisseria gonorrhoeae; N. gonorrhoeae strain WHO L; Fastidious broth; read-out: Minimum Inhibitory Concentration, N. gonorrhoeae WHO L
Experimental: as §1, §2

[6] = test system: N. gonorrhoeae H041; assay: Liquid broth MIC in Fastidious broth; format: cell-based; conditions: Neisseria gonorrhoeae, H041, read-out: Minimum Inhibitory Concentration, N. gonorrhoeae H041
Experimental: as §1, §2

[7] = test system: N. gonorrhoeae FA1090; assay: Liquid broth MIC in Fastidious broth; format: cell-based; conditions: Neisseria gonorrhoeae; N. gonorrhoeae strain FA1090; Fastidious broth; read-out: Minimum Inhibitory Concentration, N. gonorrhoeae FA1090
Experimental: as §1, §2

[8] = target: T2, P. aeruginosa PBP3 (Pseudomonas aeruginosa, UniProt G3XD46); assay: Bocillin-FL fluorescence polarization competition binding assay, P. aeruginosa PBP3; conditions: fluorescence polarization competition binding assay using Bocillin-FL
T2 construct: made in house
T2 sequence (G3XD46 whole entry): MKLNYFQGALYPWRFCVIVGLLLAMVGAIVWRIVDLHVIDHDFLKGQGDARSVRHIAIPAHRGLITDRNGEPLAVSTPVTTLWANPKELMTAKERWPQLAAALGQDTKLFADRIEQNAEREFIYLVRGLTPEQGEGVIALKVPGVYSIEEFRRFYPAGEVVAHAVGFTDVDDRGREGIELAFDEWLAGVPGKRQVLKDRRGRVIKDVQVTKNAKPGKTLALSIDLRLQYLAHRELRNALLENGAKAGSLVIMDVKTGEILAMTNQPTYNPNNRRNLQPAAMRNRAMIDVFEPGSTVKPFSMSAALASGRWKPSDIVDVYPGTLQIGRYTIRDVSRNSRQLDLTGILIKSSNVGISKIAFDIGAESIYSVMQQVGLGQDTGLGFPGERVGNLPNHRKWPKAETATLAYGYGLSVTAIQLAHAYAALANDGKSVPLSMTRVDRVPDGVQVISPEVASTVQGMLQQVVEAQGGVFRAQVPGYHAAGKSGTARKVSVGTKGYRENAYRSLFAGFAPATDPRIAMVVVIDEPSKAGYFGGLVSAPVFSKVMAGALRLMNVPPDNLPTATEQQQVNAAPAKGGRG
Procedure, shortened: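 Inhibitor competition with Bocillin-FL for P. aeruginosa PBP3 was followed by fluorescence polarization on a Cytation3 (BioTek) reader, using g-factor 0.96, 490 nm excitation and 520 nm emission. The enzyme was at 0.75 μM and the probe at 0.1 μM in Hepes/NaCl/glycerol buffer, 80 μl per well. FP was recorded immediately after probe addition for up to 60 minutes. Potency was expressed as EC50, the concentration that reduces bound probe by 50%.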

T1 sequence (P0AD68 1-577): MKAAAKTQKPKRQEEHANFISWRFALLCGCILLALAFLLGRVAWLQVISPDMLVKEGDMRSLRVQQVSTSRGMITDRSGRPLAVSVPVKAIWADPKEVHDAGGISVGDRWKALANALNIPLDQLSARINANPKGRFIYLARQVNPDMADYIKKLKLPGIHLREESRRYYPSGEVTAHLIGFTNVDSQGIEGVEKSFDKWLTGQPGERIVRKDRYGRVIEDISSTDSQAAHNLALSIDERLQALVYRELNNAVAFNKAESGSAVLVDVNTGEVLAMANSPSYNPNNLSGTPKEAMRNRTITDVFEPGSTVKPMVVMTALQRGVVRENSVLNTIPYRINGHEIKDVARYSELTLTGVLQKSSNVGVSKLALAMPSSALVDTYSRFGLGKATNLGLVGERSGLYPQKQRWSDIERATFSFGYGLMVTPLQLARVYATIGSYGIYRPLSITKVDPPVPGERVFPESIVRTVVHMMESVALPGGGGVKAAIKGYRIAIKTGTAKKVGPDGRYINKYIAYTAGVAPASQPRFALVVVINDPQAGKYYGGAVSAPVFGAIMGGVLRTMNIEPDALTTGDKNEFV

Structure (SMILES) | EC50 [1] | MIC [2] | MIC [3] | MIC [4] | MIC [5] | MIC [6] | MIC [7] | P. aeruginosa PBP3 Potency [8]
NCCN1CCN(C(=O)N[C@@H](C(=O)N[C@H]2Cc3ccc(F)c(C(=O)O)c3OB2O)c2c(F)cc(O)c(O)c2F)C(=O)C1=O (single isomer, unassigned) [Example 40] | < 30 µM | 16 to 32 µg/mL (≈ 26.3 to 52.5 µM) | 16 to 32 µg/mL (≈ 26.3 to 52.5 µM) | > 64 µg/mL | > 64 µg/mL | > 64 µg/mL | 4 to 8 µg/mL (≈ 6.57 to 13.1 µM) | D (D represents a potency <10 μM)
NCCCN1CCN(C(=O)N[C@@H](C(=O)N[C@H]2Cc3ccc(F)c(C(=O)O)c3OB2O)c2c(F)cc(O)c(O)c2F)C(=O)C1=O (single isomer, unassigned) [Example 41] | < 30 µM | 16 to 32 µg/mL (≈ 25.7 to 51.3 µM) | 16 to 32 µg/mL (≈ 25.7 to 51.3 µM) | > 64 µg/mL | > 64 µg/mL | > 64 µg/mL | 4 to 8 µg/mL (≈ 6.42 to 12.8 µM) | D (D represents a potency <10 μM)
CCN1CCN(C(=O)N[C@H](C(=O)N[C@H]2Cc3cccc(C(=O)O)c3OB2O)c2cc(O)cc(O)c2)C(=O)C1=O (single isomer, unassigned) [Example 81] | > 500 µM | 4 to 8 µg/mL (≈ 7.4 to 14.8 µM) | 0.25 to 0.5 µg/mL (≈ 0.463 to 0.925 µM) | 16 to 32 µg/mL (≈ 29.6 to 59.2 µM) | 16 to 32 µg/mL (≈ 29.6 to 59.2 µM) | 16 to 32 µg/mL (≈ 29.6 to 59.2 µM) | 0.25 to 0.5 µg/mL (≈ 0.463 to 0.925 µM) | B (B represents a potency between 30 μM and 500 μM inclusive)
CCN1CCN(C(=O)N[C@@H](C(=O)N[C@H]2Cc3cccc(C(=O)O)c3OB2O)c2cc(O)cc(O)c2)C(=O)C1=O (single isomer, unassigned) [Example 82] | 30 to 500 µM | 4 to 8 µg/mL (≈ 7.4 to 14.8 µM) | 0.25 to 0.5 µg/mL (≈ 0.463 to 0.925 µM) | 4 to 8 µg/mL (≈ 7.4 to 14.8 µM) | 16 to 32 µg/mL (≈ 29.6 to 59.2 µM) | 4 to 8 µg/mL (≈ 7.4 to 14.8 µM) | < 0.125 µg/mL | D (D represents a potency <10 μM)
NCCN1CCN(C(=O)N[C@H](C(=O)N[C@H]2Cc3cccc(C(=O)O)c3OB2O)c2ccc(C(=O)O)cc2)C(=O)C1=O (single isomer, unassigned) [Example 83] | 30 to 500 µM | 16 to 32 µg/mL (≈ 28.2 to 56.4 µM) | 4 to 8 µg/mL (≈ 7.05 to 14.1 µM) | > 64 µg/mL | > 64 µg/mL | > 64 µg/mL | 1 to 2 µg/mL (≈ 1.76 to 3.53 µM) | C (C represents a potency between 10 and 30 μM)
NCCN1CCN(C(=O)N[C@@H](C(=O)N[C@H]2Cc3cccc(C(=O)O)c3OB2O)c2ccc(C(=O)O)cc2)C(=O)C1=O (single isomer, unassigned) [Example 84] | < 30 µM | 4 to 8 µg/mL (≈ 7.05 to 14.1 µM) | 1 to 2 µg/mL (≈ 1.76 to 3.53 µM) | 16 to 32 µg/mL (≈ 28.2 to 56.4 µM) | 16 to 32 µg/mL (≈ 28.2 to 56.4 µM) | > 64 µg/mL | 1 to 2 µg/mL (≈ 1.76 to 3.53 µM) | D (D represents a potency <10 μM)
NCCN1CCN(C(=O)N[C@H](C(=O)N[C@H]2Cc3cccc(C(=O)O)c3OB2O)c2ccc(O)cc2Cl)C(=O)C1=O (single isomer, unassigned) [Example 85] | 30 to 500 µM | > 64 µg/mL | > 64 µg/mL | > 64 µg/mL | > 64 µg/mL | > 64 µg/mL | 4 to 8 µg/mL (≈ 6.97 to 13.9 µM) | C (C represents a potency between 10 and 30 μM)
NCCN1CCN(C(=O)N[C@@H](C(=O)N[C@H]2Cc3cccc(C(=O)O)c3OB2O)c2ccc(O)cc2Cl)C(=O)C1=O (single isomer, unassigned) [Example 86] | < 30 µM | > 64 µg/mL | 4 to 8 µg/mL (≈ 6.97 to 13.9 µM) | > 64 µg/mL | > 64 µg/mL | > 64 µg/mL | 1 to 2 µg/mL (≈ 1.74 to 3.49 µM) | D (D represents a potency <10 μM)
NCCN1CCN(C(=O)N[C@H](C(=O)N[C@H]2Cc3cccc(C(=O)O)c3OB2O)c2ccc(O)cc2F)C(=O)C1=O (single isomer, unassigned) [Example 88] | 30 to 500 µM | > 64 µg/mL | 16 to 32 µg/mL (≈ 28.7 to 57.4 µM) | > 64 µg/mL | > 64 µg/mL | > 64 µg/mL | 4 to 8 µg/mL (≈ 7.18 to 14.4 µM) | C (C represents a potency between 10 and 30 μM)
NCCN1CCN(C(=O)N[C@@H](C(=O)N[C@H]2Cc3cccc(C(=O)O)c3OB2O)c2ccc(O)cc2F)C(=O)C1=O (single isomer, unassigned) [Example 89] | 30 to 500 µM | 16 to 32 µg/mL (≈ 28.7 to 57.4 µM) | 4 to 8 µg/mL (≈ 7.18 to 14.4 µM) | > 64 µg/mL | > 64 µg/mL | > 64 µg/mL | 1 to 2 µg/mL (≈ 1.79 to 3.59 µM) | D (D represents a potency <10 μM)
CCN1CCN(C(=O)N[C@@H](C(=O)N[C@H]2Cc3cccc(C(=O)O)c3OB2O)c2cc(Cl)c(O)cc2Cl)C(=O)C1=O (single isomer, unassigned) [Example 91] | < 30 µM | 16 to 32 µg/mL (≈ 27 to 53.9 µM) | 1 to 2 µg/mL (≈ 1.69 to 3.37 µM) | 16 to 32 µg/mL (≈ 27 to 53.9 µM) | > 64 µg/mL | 16 to 32 µg/mL (≈ 27 to 53.9 µM) | 0.25 to 0.5 µg/mL (≈ 0.421 to 0.843 µM) | D (D represents a potency <10 μM)
CCN1CCN(C(=O)N[C@H](C(=O)N[C@H]2Cc3cccc(C(=O)O)c3OB2O)c2cc(Cl)c(O)cc2Cl)C(=O)C1=O (single isomer, unassigned) [Example 92] | > 500 µM | > 64 µg/mL | > 64 µg/mL | > 64 µg/mL | > 64 µg/mL | > 64 µg/mL | 16 to 32 µg/mL (≈ 27 to 53.9 µM) | B (B represents a potency between 30 μM and 500 μM inclusive)
O=C(O)c1ccc(C(NC(=O)c2ccc(O)c(O)c2Cl)C(=O)N[C@H]2Cc3cccc(C(=O)O)c3OB2O)cc1F (stereo partly drawn) [Example 7, (3R)-3-(2-(4-carboxy-3-fluorophenyl)-2-(2-chloro-3,4-dihydroxybenzamido)acetamido)-2-hydroxy-3,4-dihydro-2H-benzo[e][1,2]oxaborinine-8-carboxylic acid] | 30 to 500 µM | > 64 µg/mL | > 64 µg/mL | > 64 µg/mL | > 64 µg/mL | > 64 µg/mL | 16 to 32 µg/mL (≈ 27.9 to 55.9 µM) | D (D represents a potency <10 μM)
